Measured values: patent US20150147792A1, “Betaine Enhancement of Fermentation to make C4 Diacids” (ARCHER DANIELS MIDLAND COMPANY, priority 2012, published 2015)

Experiments:
[1] = tested on: A. succinogenes strain FZ45 830.60; assay: Production fermentation of dextrose to succinic acid, strain FZ45 830.60; format: cell-based, Actinobacillus succinogenes
Description: In a medium containing 90-155 g/l of dextrose as the primary carbon source supplemented with 15 g/liter of a commercial yeast extract (TASTONE™ 900AG from Sensient, Milwaukee, Wis.) the 830.60 strain was capable of producing a titer of 100 g/l of succinic acid with a 85-90% yield from dextrose at a productivity rate of 2 To 3 g/liter/hour.
For the present work, a variety of media alterations were tried in an attempt to substitute the commercial yeast extract with corn steep liquor and/or with a locally produced homogenized yeast extract made by homogenizing aerobically grown yeast produced incident to ethanol fermentation, and/or by supplementing the media with betaine and/or glutamate. To distinguish commercial yeast extract, which is available from distributors a dry powder, from a homogenate of yeast cells made locally by rupturing yeast cells in liquid suspension, the latter is referred to herein as “local yeast homogenate”
Corn steep liquor (CSL) was used as the target nutrient source to substitute for yeast extract. CSL is a by-product of wet corn milling obtained by steeping corn grain in water containing a small amount of a sulfide compound for several hours. CSL is rich in low molecular weight organic acids, some carbohydrates, vitamins and minerals that are released from the corn grain. The amount of CSL and local yeast homogenate is shown in terms of dry solids basis (dsb) meaning the amount of material added excluding water weight, per liter of fermentation. Glutamate was added in the form of monosodium glutamate (MSG) and betaine was added in the form of the anhydrous base in the amounts shown. Dextrose was present at between 90 and 125 g/l in all starting media.
Local yeast homogenate was obtained by aerobically growing an ethanol producing strain of the bakers yeast S. cerevesiae on dextrose until the culture reached stationary phase, recovering the yeast cells as paste, and homogenizing the yeast paste with an APV Gaulin French press type homogenizer at a pressures of 12,500 psi or greater. The glutamic acid was added in the form of monosodium glutamate, and the betaine was betaine base anhydrous from MP Biomedicals
Inoculum Medium A. succinogenes strain FZ45830,60, provided by MBI International, was grown in two 100 ml serum bottles each containing 50 ml of inoculum medium incubated at 38° C. for 15-24 hours by shaking in a rotary incubator at 180 rpm, which was then used as 5% vol/vol inoculum for final fermenter volume of 2.0 liters in a 7.5 lite fermenter. The inoculum medium was prepared in two steps. In the first step, 4 g of MgCO3 was weighed into a 100 ml Wheaton serum bottle containing 30 ml of distilled water, which was then sealed, autoclaved and cooled. In the second step the remaining ingredients, which were prepared as supplemental sterilized solutions, were added to the serum bottle with a sterile syringe. The supplemental solutions and formulation of the inoculum media are shown below.
The serum bottle was inoculated with 1.5 ml of an overnight culture grown in the same medium. The serum bottle was flushed and overlaid with CO2 before incubation
Seed Medium A New Brunswick EPPENDORF BiOFLO 310-7.5 liter fermenter was inoculated with the 2 serum bottles containing the inoculation culture for initial production fermentation studies or as a seed culture for larger scale fermentations. The operating conditions are listed below:
The seed medium contained 4 g/l CSL dsb, 14 g/l TASTONE 900AG yeast extract, 0.0002 g/l biotin, 10 ml/l 0.5M sodium phosphate buffer and 100 g/l dextrose. The pH was adjusted with a 35% Mg(OH)2 slurry. The seed fermenter was inoculated at 5% v/v from the incubated serum bottle culture and was harvested in the early log phase (e.g., an increase in OD of 3 to 4 units) other measure of early log phase?) Two hundred ml of the seed culture was used to inoculate 4 liters of media in a second 7.5 liter production fermenter. […]

[2] = tested on: Actinobacillus Succinogenes; conditions: osmoprotectant added to media; cited from earlier work

## C[N+](C)(C)CC(=O)O [betaine, N,N,N-trimethylglycine]
[1]; betaine 0.1 to 1 g/liter
  succinic acid produced: 70 to 115 g/L
  succinic acid produced, concentration: 590 to 980 mM
[1]; betaine 1 g/liter, Table 1
  productivity rate: 2.4-2.9 g per liter per hour
  titer: 90 to 104 g/L
  yield from glucose: about 85%

## O=C(O)CCCC[C@@H]1SC[C@@H]2NC(=O)N[C@@H]21 [biotin]
[1]; betaine provided as sole non-nutrative supplement
  effect on yield from glucose: did not statistically increase the yield from glucose

## O=C(O)[C@@H]1CCCN1 [proline]
[2]
  increase in productivity: 22%
